Data published in patent US20240400555A1 (Initial Therapeutics, Inc., priority 2023, published 2024).

Test system: MV-4-11 cells
Assay: Cell Viability Assay in MV-4-11 Cells
Format: cell-based
Conditions: Homo sapiens, MV4-11, 72 h, MV-4-11 cells, 72 h, Cell-Titer Glo; read-out: IC50
In short: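 MV-4-11 cells at 7,000/well in IMDM with 10% FBS, exposed to compound for 72 h. Viability by CellTiter-Glo luminescence, normalized to DMSO as 100%, fitted with a four-parameter curve.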

Which IC50 does the source give for `O=C(c1ccc(-n2nnc3cccnc32)cc1F)N(c1nccc2sc(-c3nccs3)cc12)[C@@H]1CCCNC1` [Example 417, 2-fluoro-N-[(3R)-3-piperidyl]-N-(2-thiazol-2-ylthieno[3,2-c]pyridin-4-yl)-4-(triazolo[4,5-b]pyridin-3-yl)benzamide] here?
Its IC50 is 0.39 µM.

`O=C(c1ccc(-n2nnc3cccnc32)cc1F)N(c1nccc2sc(-c3ccn(CCO)n3)cc12)[C@@H]1CCCNC1` [Example 418, (R)-4-(3H-[1,2,3]triazolo[4,5-b]pyridin-3-yl)-2-fluoro-N-(2-(1-(2-hydroxyethyl)-1H-pyrazol-3-yl)thieno[3,2-c]pyridin-4-yl)-N-(piperidin-3-yl)benzamide] was tested. Which IC50 did it give?
The IC50 was 0.36 µM.

With `CS(=O)(=O)c1cccc(-c2cc3c(N(C(=O)c4ccc(-n5nnc6cccnc65)cc4F)[C@@H]4CCCNC4)nccc3s2)c1` [Example 419, 2-fluoro-N-[2-(3-methylsulfonylphenyl)thieno[3,2-c]pyridin-4-yl]-N-[(3R)-3-piperidyl]-4-(triazolo[4,5-b]pyridin-3-yl)benzamide] as the compound, how does the IC50 read?
Its IC50 is 0.2 µM.

Which IC50 does the source give for `Nc1noc2ccc(-c3cc4c(N(C(=O)c5ccc(-n6nnc7cccnc76)cc5F)[C@@H]5CCCNC5)nccc4s3)cc12` [Example 420, N-[2-(3-amino-1,2-benzoxazol-5-yl)thieno[3,2-c]pyridin-4-yl]-2-fluoro-N-[(3R)-3-piperidyl]-4-(triazolo[4,5-b]pyridin-3-yl)benzamide] here?
Its IC50 is 0.33 µM.

`Cc1cc(-c2cccnc2)cc2ccnc(N(C(=O)c3ccc(-n4nnc5cccnc54)cc3F)[C@@H]3CCCNC3)c12` [Example 421, (R)-4-(3H-[1,2,3]triazolo[4,5-b]pyridin-3-yl)-2-fluoro-N-(8-methyl-6-(pyridin-3-yl)isoquinolin-1-yl)-N-(piperidin-3-yl)benzamide] was tested. Which IC50 did it give?
Its IC50 is 0.016 µM.

For `Cc1cc(-c2cn[nH]c2)cc2ccnc(N(C(=O)c3ccc(-n4nnc5cccnc54)cc3F)[C@@H]3CCCNC3)c12` [Example 422, (R)-4-(3H-[1,2,3]triazolo[4,5-b]pyridin-3-yl)-2-fluoro-N-(8-methyl-6-(1H-pyrazol-4-yl)isoquinolin-1-yl)-N-(piperidin-3-yl)benzamide], which IC50 is on record?
The IC50 was 0.0066 µM.

For `O=C(c1ccc(-n2nnc3cccnc32)cc1F)N(c1nccc2sc(-c3cccc(CO)c3)cc12)[C@@H]1CCCNC1` [Example 424, 2-fluoro-N-[2-[3-(hydroxymethyl)phenyl]thieno[3,2-c]pyridin-4-yl]-N-[(3R)-3-piperidyl]-4-(triazolo[4,5-b]pyridin-3-yl)benzamide], which IC50 is on record?
Its IC50 is 0.11 µM.

Which IC50 does the source give for `N#Cc1ccc(-c2cc3c(N(C(=O)c4ccc(-n5nnc6cccnc65)cc4F)[C@@H]4CCCNC4)nccc3s2)s1` [Example 425, N-[2-(5-cyano-2-thienyl)thieno[3,2-c]pyridin-4-yl]-2-fluoro-N-[(3R)-3-piperidyl]-4-(triazolo[4,5-b]pyridin-3-yl)benzamide] here?
The IC50 was 0.23 µM.

For `O=C(c1ccc(-n2nnc3cccnc32)cc1F)N(c1nccc2sc(-c3ccc(CO)s3)cc12)[C@@H]1CCCNC1` [Example 426, 2-fluoro-N-[2-[5-(hydroxymethyl)-2-thienyl]thieno [3,2-c]pyridin-4-yl]-N-[(3R)-3-piperidyl]-4-(triazolo [4,5-b]pyridin-3-yl) benzamide], which IC50 is on record?
The IC50 was 0.16 µM.

With `O=C(c1ccc(-n2nnc3cccnc32)cc1F)N(c1nccc2sc(-c3csc(CO)n3)cc12)[C@@H]1CCCNC1` [Example 427, 2-fluoro-N-[2-[2-(hydroxymethyl)thiazol-4-yl]thieno[3,2-c]pyridin-4-yl]-N-[(3R)-3-piperidyl]-4-(triazolo[4,5-b]pyridin-3-yl)benzamide] as the compound, how does the IC50 read?
Its IC50 is 0.21 µM.

Which IC50 does the source give for `O=C(c1ccc(-n2nnc3cccnc32)cc1F)N(c1nccc2sc(-c3ccccc3O)cc12)[C@@H]1CCCNC1` [Example 428, 2-fluoro-N-[2-(2-hydroxyphenyl)thieno[3,2-c]pyridin-4-yl]-N-[(3R)-3-piperidyl]-4-(triazolo[4,5-b]pyridin-3-yl)benzamide] here?
The IC50 was 0.25 µM.

`COC(=O)c1nc(-c2cc3c(N(C(=O)c4ccc(-n5nnc6cccnc65)cc4F)[C@@H]4CCCNC4)nccc3s2)cs1` [Example 429, methyl 4-[4-[[2-fluoro-4-(triazolo[4,5-b]pyridin-3-yl)benzoyl]-[(3R)-3-piperidyl]amino]thieno[3,2-c]pyridin-2-yl]thiazole-2-carboxylate] was tested. Which IC50 did it give?
The IC50 was 1 µM.

How did the IC50 turn out when `Cn1cc(/C=C/c2ccnc(N(C(=O)c3ccc(-n4nnc5cccnc54)cc3F)[C@@H]3CCCNC3)c2)cn1` [Example 430, 2-fluoro-N-[4-[(E)-2-(1-methylpyrazol-4-yl)vinyl]-2-pyridyl]-N-[(3R)-3-piperidyl]-4-(triazolo[4,5-b]pyridin-3-yl)benzamide] was run?
Its IC50 is 0.65 µM.

Which IC50 does the source give for `O=C(c1ccc(-n2nnc3cccnc32)cc1F)N(c1cc(/C=C/c2cccnc2)ccn1)[C@@H]1CCCNC1` [Example 431, 2-fluoro-N-[(3R)-3-piperidyl]-N-[4-[(E)-2-(3-pyridyl)vinyl]-2-pyridyl]-4-(triazolo[4,5-b]pyridin-3-yl)benzamide] here?
Its IC50 is 2.3 µM.

`Cc1cccc2ccnc(N(C(=O)c3ccc(-c4nnc5n4CCCC5)cc3F)[C@@H]3CCCNC3)c12` [Example 432, (R)-2-fluoro-N-(8-methylisoquinolin-1-yl)-N-(piperidin-3-yl)-4-(5,6,7,8-tetrahydro-[1,2,4]triazolo[4,3-a]pyridin-3-yl)benzamide] was tested. Which IC50 did it give?
The IC50 was 0.4 µM.

For `O=C(c1ccc(Nc2ncccn2)cc1F)N(c1nccc2sc(-c3ccncc3)cc12)[C@@H]1CCCNC1` [Example 433], which IC50 is on record?
The IC50 was 0.026 µM.

How did the IC50 turn out when `O=C(c1ccc(-n2nnc3cccnc32)cc1F)N(c1nccc2sc(-c3ccc4ncnn4c3)cc12)[C@@H]1CCCNC1` [Example 434, (R)-4-(3H-[1,2,3]triazolo[4,5-b]pyridin-3-yl)-N-(2-([1,2,4]triazolo[1,5-a]pyridin-6-yl)thieno[3,2-c]pyridin-4-yl)-2-fluoro-N-(piperidin-3-yl)benzamide] was run?
The IC50 was 0.091 µM.

How did the IC50 turn out when `O=C(c1ccc(-n2nnc3cccnc32)cc1F)N(c1nccc2sc(-c3cnn(-c4ccccn4)c3)cc12)[C@@H]1CCCNC1` [Example 435, 2-fluoro-N-[(3R)-3-piperidyl]-N-[2-[1-(2-pyridyl)pyrazol-4-yl]thieno[3,2-c]pyridin-4-yl]-4-(triazolo[4,5-b]pyridin-3-yl)benzamide] was run?
Its IC50 is 0.3 µM.

How did the IC50 turn out when `CCn1cc(-c2cc3c(N(C(=O)c4ccc(-n5nnc6cccnc65)cc4F)[C@@H]4CCCNC4)nccc3s2)cn1` [Example 436, N-[2-(1-ethylpyrazol-4-yl)thieno[3,2-c]pyridin-4-yl]-2-fluoro-N-[(3R)-3-piperidyl]-4-(triazolo[4,5-b]pyridin-3-yl)benzamide] was run?
Its IC50 is 0.27 µM.

How did the IC50 turn out when `CC(C)n1cc(-c2cc3c(N(C(=O)c4ccc(-n5nnc6cccnc65)cc4F)[C@@H]4CCCNC4)nccc3s2)cn1` [Example 437, (R)-4-(3H-[1,2,3]triazolo[4,5-b]pyridin-3-yl)-2-fluoro-N-(2-(1-isopropyl-1H-pyrazol-4-yl)thieno[3,2-c]pyridin-4-yl)-N-(piperidin-3-yl)benzamide] was run?
The IC50 was 0.38 µM.

For `Cn1ccc(-c2cc3c(N(C(=O)c4ccc(-n5nnc6cccnc65)cc4F)[C@@H]4CCCNC4)nccc3s2)n1` [Example 438, 2-fluoro-N-[2-(1-methylpyrazol-3-yl)thieno[3,2-c]pyridin-4-yl]-N-[(3R)-3-piperidyl]-4-(triazolo[4,5-b]pyridin-3-yl)benzamide], which IC50 is on record?
Its IC50 is 0.22 µM.

For `CC(C)n1nccc1-c1ccc2c(N(C(=O)c3ccc(-n4nnc5cccnc54)cc3F)[C@@H]3CCCNC3)nccc2c1` [Example 439, (R)-4-(3H-[1,2,3]triazolo[4,5-b]pyridin-3-yl)-2-fluoro-N-(6-(1-isopropyl-1H-pyrazol-5-yl)isoquinolin-1-yl)-N-(piperidin-3-yl)benzamide], which IC50 is on record?
Its IC50 is 1.2 µM.

How did the IC50 turn out when `O=C(c1ccc(-n2nnc3cccnc32)cc1F)N(c1nccc2cc(-c3cc[nH]c(=O)c3)ccc12)[C@@H]1CCCNC1` [Example 440, (R)-4-(3H-[1,2,3]triazolo[4,5-b]pyridin-3-yl)-2-fluoro-N-(6-(2-oxo-1,2-dihydropyridin-4-yl)isoquinolin-1-yl)-N-(piperidin-3-yl)benzamide] was run?
Its IC50 is 0.29 µM.

For `Cc1cccc2ccnc(N(C(=O)c3ccc(-c4cn(C)nn4)cc3F)[C@H]3CNCC[C@@H]3C)c12` [Example 441, 2-fluoro-N-(8-methyl-1-isoquinolyl)-N-[(3R, 4S)-4-methyl-3-piperidyl]-4-(1-methyltriazol-4-yl) benzamide], which IC50 is on record?
Its IC50 is 0.12 µM.

How did the IC50 turn out when `NC(=O)/C=C/c1cc2c(N(C(=O)c3ccc(-n4nnc5cccnc54)cc3F)[C@@H]3CCCNC3)nccc2s1` [Example 442, N-[2-[(E)-3-amino-3-oxo-prop-1-enyl]thieno[3,2-c]pyridin-4-yl]-2-fluoro-N-[(3R)-3-piperidyl]-4-(triazolo[4,5-b]pyridin-3-yl)benzamide] was run?
The IC50 was 1 µM.

Which IC50 does the source give for `Cc1ncc(-c2cc3c(N(C(=O)c4ccc(-n5nnc6cccnc65)cc4F)[C@@H]4CCCNC4)nccc3s2)s1` [Example 443, 2-fluoro-N-[2-(2-methylthiazol-5-yl)thieno[3,2-c]pyridin-4-yl]-N-[(3R)-3-piperidyl]-4-(triazolo[4,5-b]pyridin-3-yl)benzamide] here?
The IC50 was 0.3 µM.

`Cc1cc(Cl)cc2ccnc(N(C(=O)c3ccc(-c4cn(C)nn4)cc3F)[C@@H]3CCCNC3)c12` [Example 444, N-(6-chloro-8-methyl-1-isoquinolyl)-2-fluoro-4-(1-methyltriazol-4-yl)-N-[(3R)-3-piperidyl] benzamide] was tested. Which IC50 did it give?
Its IC50 is 0.0069 µM.

Which IC50 does the source give for `Cn1cc(-c2ccc3c(N(C(=O)c4ccc(-c5cn(C)nn5)cc4F)[C@@H]4CCCNC4)nccc3c2)cn1` [Example 445, (R)-2-fluoro-4-(1-methyl-1H-1,2,3-triazol-4-yl)-N-(6-(1-methyl-1H-pyrazol-4-yl)isoquinolin-1-yl)-N-(piperidin-3-yl)benzamide] here?
Its IC50 is 0.29 µM.

For `NS(=O)(=O)c1cccc(-c2cc3c(N(C(=O)c4ccc(-n5nnc6cccnc65)cc4F)[C@@H]4CCCNC4)nccc3s2)c1` [Example 446, 2-fluoro-N-[(3R)-3-piperidyl]-N-[2-(3-sulfamoylphenyl)thieno[3,2-c]pyridin-4-yl]-4-(triazolo[4,5-b]pyridin-3-yl)benzamide], which IC50 is on record?
Its IC50 is 1.9 µM.
